Data: ChEMBL document CHEMBL5291721, “A preclinical secondary pharmacology resource illuminates target-adverse drug reaction associations of marketed drugs” (Nat Commun, 2023)

Experiments:
Vasopressin V1a receptor = Vasopressin V1a receptor (Homo sapiens, UniProt P37288)
B2 bradykinin receptor = target: T1, B2 bradykinin receptor (Homo sapiens, UniProt P30411)
T1 sequence (P30411 whole entry): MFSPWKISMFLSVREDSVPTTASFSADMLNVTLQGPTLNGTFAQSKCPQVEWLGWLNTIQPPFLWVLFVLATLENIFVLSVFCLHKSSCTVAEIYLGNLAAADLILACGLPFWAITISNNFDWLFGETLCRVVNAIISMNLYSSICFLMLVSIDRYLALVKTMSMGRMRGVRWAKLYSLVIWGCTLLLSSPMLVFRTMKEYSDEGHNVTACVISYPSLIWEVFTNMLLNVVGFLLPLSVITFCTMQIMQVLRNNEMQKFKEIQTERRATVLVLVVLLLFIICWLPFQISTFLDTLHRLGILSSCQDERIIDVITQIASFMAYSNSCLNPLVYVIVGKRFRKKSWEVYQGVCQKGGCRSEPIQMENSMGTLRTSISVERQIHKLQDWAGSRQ

[1] = target: Voltage-dependent L-type calcium channel subunit alpha-1C (Rattus norvegicus, UniProt P22002); type: functional
Voltage-dependent L-type calcium channel subunit alpha-1C, sequence (P22002 whole entry): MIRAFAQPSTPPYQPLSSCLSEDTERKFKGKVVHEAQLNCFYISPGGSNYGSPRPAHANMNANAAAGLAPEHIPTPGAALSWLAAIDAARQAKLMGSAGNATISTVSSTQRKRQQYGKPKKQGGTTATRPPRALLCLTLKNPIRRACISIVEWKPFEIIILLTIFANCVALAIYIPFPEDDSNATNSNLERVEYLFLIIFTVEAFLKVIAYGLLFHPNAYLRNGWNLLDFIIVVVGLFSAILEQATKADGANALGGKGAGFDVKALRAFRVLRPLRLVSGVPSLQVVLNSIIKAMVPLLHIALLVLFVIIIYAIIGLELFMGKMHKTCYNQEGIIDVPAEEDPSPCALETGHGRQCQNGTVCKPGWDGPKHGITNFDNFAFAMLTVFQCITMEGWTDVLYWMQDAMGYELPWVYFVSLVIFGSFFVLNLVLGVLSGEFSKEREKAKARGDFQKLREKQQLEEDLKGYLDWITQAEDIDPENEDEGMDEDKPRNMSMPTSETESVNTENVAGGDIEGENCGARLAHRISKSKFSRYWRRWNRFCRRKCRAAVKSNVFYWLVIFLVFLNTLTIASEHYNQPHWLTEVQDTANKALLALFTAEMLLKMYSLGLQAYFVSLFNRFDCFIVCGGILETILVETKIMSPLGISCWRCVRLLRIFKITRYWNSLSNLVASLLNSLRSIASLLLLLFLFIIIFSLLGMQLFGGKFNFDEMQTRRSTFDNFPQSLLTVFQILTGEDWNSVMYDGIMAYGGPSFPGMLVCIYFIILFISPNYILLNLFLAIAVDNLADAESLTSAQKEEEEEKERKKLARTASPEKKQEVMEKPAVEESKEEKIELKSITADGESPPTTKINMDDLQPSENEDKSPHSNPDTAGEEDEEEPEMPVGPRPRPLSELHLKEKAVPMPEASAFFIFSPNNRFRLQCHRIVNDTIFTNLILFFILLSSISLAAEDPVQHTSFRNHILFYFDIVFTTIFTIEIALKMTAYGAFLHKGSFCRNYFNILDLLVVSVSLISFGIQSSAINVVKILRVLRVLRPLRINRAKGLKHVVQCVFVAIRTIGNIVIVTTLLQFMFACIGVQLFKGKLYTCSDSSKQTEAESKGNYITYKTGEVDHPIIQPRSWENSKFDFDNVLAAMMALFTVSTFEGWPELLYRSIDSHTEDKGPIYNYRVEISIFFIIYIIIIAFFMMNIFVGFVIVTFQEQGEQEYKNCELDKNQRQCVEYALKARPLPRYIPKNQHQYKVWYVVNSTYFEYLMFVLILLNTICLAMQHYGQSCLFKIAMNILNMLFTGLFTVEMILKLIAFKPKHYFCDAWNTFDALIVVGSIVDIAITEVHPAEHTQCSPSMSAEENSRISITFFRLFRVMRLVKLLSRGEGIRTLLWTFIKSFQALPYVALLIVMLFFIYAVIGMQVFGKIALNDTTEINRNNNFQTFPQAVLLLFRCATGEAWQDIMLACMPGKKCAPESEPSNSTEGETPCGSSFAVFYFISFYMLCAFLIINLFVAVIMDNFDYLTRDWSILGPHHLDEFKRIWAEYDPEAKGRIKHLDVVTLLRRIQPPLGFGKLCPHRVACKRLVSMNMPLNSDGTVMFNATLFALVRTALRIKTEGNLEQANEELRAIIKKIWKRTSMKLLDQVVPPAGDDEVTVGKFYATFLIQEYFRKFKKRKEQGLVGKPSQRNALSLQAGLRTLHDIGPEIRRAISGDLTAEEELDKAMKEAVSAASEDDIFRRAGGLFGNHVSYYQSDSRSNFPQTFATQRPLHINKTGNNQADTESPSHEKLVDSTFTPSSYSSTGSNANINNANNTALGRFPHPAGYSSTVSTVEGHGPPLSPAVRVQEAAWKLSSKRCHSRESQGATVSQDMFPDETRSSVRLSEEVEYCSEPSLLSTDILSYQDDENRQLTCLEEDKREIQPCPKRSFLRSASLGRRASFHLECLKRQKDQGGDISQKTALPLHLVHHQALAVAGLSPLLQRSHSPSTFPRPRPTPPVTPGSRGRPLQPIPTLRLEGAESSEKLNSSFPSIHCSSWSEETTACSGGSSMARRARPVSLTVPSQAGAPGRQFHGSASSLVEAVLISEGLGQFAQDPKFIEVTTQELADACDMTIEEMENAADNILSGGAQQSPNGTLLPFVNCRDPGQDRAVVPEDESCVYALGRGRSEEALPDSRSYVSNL

[2] = target: T2, Muscarinic acetylcholine receptor M1 (Homo sapiens, UniProt P11229); type: functional
T2 sequence (P11229 whole entry): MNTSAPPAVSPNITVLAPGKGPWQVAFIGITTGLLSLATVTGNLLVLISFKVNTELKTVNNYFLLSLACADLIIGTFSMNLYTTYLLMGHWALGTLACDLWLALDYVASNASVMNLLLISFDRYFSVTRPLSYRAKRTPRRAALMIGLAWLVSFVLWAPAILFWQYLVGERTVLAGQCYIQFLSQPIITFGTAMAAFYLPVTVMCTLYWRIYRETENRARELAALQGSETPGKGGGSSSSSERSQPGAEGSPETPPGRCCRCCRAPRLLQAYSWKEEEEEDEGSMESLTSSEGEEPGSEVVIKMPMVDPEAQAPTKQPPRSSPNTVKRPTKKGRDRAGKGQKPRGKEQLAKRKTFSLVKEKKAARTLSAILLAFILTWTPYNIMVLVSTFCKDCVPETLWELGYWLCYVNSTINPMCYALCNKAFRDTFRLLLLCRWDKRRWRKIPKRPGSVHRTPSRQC

[3] = target: Muscarinic acetylcholine receptor M3 (Homo sapiens, UniProt P20309)
Muscarinic acetylcholine receptor M3, sequence (P20309 whole entry): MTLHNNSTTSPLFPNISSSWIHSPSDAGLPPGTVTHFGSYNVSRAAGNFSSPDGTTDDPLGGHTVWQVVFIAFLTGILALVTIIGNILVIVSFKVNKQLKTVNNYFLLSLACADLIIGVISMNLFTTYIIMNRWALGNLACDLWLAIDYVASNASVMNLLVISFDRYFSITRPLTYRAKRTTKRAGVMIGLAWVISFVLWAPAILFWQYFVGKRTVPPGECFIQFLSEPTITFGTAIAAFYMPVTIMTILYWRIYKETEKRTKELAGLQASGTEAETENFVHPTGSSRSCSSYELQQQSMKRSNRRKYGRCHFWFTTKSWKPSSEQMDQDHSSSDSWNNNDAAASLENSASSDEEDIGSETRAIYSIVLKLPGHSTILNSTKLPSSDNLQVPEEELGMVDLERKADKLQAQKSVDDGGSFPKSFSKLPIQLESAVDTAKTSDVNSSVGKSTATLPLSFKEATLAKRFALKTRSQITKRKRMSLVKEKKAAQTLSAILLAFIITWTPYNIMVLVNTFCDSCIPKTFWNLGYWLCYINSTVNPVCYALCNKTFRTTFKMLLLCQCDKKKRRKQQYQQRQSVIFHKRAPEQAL

Progesterone receptor = target: T3, Progesterone receptor (Homo sapiens, UniProt P06401); type: functional
T3 sequence (P06401 whole entry): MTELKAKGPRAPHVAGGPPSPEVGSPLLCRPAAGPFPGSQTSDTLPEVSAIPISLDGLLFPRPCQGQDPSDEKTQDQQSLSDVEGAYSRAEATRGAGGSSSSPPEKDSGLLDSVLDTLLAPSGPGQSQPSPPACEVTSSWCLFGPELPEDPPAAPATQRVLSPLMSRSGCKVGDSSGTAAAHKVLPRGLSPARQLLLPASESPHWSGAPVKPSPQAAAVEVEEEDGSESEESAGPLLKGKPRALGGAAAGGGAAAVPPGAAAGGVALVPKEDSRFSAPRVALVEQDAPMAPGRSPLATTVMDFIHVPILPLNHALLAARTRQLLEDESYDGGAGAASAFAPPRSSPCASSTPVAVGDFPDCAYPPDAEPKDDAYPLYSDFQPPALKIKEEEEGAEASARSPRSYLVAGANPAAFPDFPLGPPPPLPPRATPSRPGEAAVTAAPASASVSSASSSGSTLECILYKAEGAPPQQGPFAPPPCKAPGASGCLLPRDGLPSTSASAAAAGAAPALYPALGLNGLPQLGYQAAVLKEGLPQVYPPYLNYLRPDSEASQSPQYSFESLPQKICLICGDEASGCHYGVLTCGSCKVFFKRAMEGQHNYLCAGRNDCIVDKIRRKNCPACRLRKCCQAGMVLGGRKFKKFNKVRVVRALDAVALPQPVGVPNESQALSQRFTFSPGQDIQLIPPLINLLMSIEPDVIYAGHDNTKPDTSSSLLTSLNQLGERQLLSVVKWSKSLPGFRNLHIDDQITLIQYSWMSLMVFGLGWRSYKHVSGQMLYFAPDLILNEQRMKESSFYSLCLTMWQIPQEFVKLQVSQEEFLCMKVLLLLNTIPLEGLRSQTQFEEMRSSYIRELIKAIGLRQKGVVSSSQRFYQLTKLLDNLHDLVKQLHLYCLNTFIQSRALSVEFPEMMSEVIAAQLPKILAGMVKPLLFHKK

[4] = target: T4, Alpha-1A adrenergic receptor (Homo sapiens, UniProt P35348); type: functional, cell-based
T4 sequence (P35348 whole entry): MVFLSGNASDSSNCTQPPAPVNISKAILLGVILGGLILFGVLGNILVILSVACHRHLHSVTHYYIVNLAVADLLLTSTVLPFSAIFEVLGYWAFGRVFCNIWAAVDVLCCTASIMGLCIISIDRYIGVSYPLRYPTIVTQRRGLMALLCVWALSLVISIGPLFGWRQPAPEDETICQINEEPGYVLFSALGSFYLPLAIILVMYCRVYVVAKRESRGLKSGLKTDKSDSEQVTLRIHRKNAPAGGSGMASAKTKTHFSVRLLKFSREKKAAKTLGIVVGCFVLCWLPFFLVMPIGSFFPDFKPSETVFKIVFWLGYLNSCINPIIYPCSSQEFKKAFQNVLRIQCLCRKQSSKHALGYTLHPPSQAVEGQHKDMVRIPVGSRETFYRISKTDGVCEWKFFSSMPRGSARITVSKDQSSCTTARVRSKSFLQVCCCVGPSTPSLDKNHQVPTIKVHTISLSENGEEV

[5] = target: T4, Alpha-1A adrenergic receptor
Cannabinoid receptor 1 = Cannabinoid receptor 1 (Homo sapiens, UniProt P21554)
Cannabinoid receptor 1, sequence (P21554 whole entry): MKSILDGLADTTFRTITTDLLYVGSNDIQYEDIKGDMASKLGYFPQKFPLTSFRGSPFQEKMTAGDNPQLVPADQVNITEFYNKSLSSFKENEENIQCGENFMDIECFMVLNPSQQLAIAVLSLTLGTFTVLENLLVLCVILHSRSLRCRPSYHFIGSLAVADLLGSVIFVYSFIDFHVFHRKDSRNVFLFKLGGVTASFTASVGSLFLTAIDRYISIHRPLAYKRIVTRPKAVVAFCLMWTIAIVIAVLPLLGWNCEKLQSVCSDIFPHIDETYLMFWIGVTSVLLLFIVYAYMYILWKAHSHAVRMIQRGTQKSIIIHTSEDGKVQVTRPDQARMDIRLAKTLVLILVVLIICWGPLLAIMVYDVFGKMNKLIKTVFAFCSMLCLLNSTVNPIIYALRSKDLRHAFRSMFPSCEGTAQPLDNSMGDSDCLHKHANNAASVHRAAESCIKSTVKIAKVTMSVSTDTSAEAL

Melanocortin receptor 4 = Melanocortin receptor 4 (Homo sapiens, UniProt P32245)
Melanocortin receptor 4, sequence (P32245 whole entry): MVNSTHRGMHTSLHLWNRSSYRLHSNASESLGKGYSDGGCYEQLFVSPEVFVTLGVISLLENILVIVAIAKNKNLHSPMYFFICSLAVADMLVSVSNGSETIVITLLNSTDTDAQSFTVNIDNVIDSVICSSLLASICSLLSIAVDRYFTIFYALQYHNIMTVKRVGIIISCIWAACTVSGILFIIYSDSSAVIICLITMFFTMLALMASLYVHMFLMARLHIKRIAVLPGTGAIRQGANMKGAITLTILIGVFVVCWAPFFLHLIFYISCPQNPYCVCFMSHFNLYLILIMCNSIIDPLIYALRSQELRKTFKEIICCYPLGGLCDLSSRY

Mu-type opioid receptor = Mu-type opioid receptor (Homo sapiens, UniProt P35372)
Mu-type opioid receptor, sequence (P35372 whole entry): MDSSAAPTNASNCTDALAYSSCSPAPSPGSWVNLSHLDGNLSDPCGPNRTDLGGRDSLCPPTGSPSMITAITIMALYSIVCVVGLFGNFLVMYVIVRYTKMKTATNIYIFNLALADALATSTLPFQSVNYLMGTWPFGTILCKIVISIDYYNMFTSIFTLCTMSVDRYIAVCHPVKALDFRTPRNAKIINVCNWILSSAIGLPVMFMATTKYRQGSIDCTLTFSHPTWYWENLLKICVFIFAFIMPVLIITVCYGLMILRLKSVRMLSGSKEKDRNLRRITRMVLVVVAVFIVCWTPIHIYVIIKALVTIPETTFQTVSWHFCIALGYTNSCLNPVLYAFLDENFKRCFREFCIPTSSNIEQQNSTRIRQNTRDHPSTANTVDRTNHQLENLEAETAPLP
Also: assay procedure not described here.

Vasopressin V1a receptor, sequence (P37288 whole entry): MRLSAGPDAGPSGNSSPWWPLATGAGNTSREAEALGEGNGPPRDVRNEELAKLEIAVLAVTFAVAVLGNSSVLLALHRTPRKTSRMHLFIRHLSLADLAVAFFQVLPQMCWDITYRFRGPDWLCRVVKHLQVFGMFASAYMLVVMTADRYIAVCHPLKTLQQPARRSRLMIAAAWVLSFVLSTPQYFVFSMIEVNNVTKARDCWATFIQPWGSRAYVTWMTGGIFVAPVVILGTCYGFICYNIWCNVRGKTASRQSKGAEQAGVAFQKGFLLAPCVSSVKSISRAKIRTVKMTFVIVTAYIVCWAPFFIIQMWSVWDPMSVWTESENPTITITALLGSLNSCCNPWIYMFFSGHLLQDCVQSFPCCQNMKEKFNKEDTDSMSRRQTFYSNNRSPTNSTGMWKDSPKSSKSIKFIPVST

Compound	AC50 (Vasopressin V1a receptor)	AC50 (B2 bradykinin receptor)	AC50 [1]	AC50 [2]	AC50 [3]	AC50 (Progesterone receptor)	AC50 [4]	AC50 [5]	AC50 (Cannabinoid receptor 1)	AC50 (Melanocortin receptor 4)	AC50 (Mu-type opioid receptor)
O=C(C[S+]([O-])C(c1ccccc1)c1ccccc1)NO (configuration not stated)	> 30 µM	> 30 µM	> 30 µM	> 30 µM	> 30 µM	> 30 µM	> 30 µM	–	–	–	–
COc1ccc2c(c1)c(CC(=O)OCC(=O)O)c(C)n2C(=O)c1ccc(Cl)cc1 [ACEMETACIN]	–	> 30 µM	> 30 µM	–	–	> 30 µM	> 30 µM	–	–	–	–
CN1C(=O)COc2c(C(=O)NC3CN4CCC3CC4)cc(Cl)cc21 (configuration not stated) [AZASETRON]	> 30 µM	> 30 µM	> 30 µM	–	–	> 30 µM	> 30 µM	–	–	–	–
Cc1cc2c(OCC(CNC(C)(C)C)OC(=O)c3ccccc3)cccc2[nH]1 (configuration not stated) [BOPINDOLOL]	> 30 µM	> 30 µM	> 30 µM	–	–	> 30 µM	> 30 µM	–	–	–	–
CCCCN1CCCCC1C(=O)Nc1c(C)cccc1C (configuration not stated) [BUPIVACAINE]	–	> 30 µM	> 30 µM	–	–	> 30 µM	–	–	–	–	–
CCOC(=O)[C@H](CCc1ccccc1)N[C@H]1CCCN2CCC[C@@H](C(=O)O)N2C1=O [CILAZAPRIL]	> 30 µM	> 30 µM	> 30 µM	> 30 µM	> 30 µM	> 30 µM	> 30 µM	–	–	–	–
CCOc1cc(N)c([N+](=O)[O-])cc1C(=O)NC1CCN(CC2CC=CCC2)CC1 (configuration not stated) [CINITAPRIDE]	> 30 µM	> 30 µM	> 30 µM	14 µM	13 µM	> 30 µM	> 30 µM	–	–	–	–
CC(C)(Oc1ccc(C2CC2(Cl)Cl)cc1)C(=O)O (configuration not stated) [CIPROFIBRATE]	–	> 30 µM	> 30 µM	–	–	> 30 µM	> 30 µM	–	–	–	–
COC(=O)[C@H]1[C@@H](OC(=O)c2ccccc2)C[C@@H]2CC[C@H]1N2C [COCAINE]	> 30 µM	> 30 µM	> 30 µM	> 30 µM	> 30 µM	> 30 µM	> 30 µM	–	–	–	–
Cc1c(O)c(=O)ccn1C [DEFERIPRONE]	–	> 30 µM	> 30 µM	–	–	> 30 µM	> 30 µM	–	–	–	–
CC(=O)O[C@@]12CO[C@@H]1C[C@H](O)[C@@]1(C)C(=O)[C@H](O)C3=C(C)[C@@H](OC(=O)[C@H](O)[C@@H](NC(=O)OC(C)(C)C)c4ccccc4)C[C@@](O)([C@@H](OC(=O)c4ccccc4)[C@H]21)C3(C)C [DOCETAXEL ANHYDROUS]	–	> 30 µM	> 30 µM	–	–	> 30 µM	–	> 30 µM	> 30 µM	> 30 µM	–
CCCCCCCCCCCC[N+](C)(C)CCOc1ccccc1 [DOMIPHEN]	11 µM	> 30 µM	> 30 µM	8.9 µM	8.4 µM	> 30 µM	–	–	–	–	–
CCNC(C)Cc1cccc(C(F)(F)F)c1 (configuration not stated) [FENFLURAMINE]	> 10 µM	> 30 µM	> 10 µM	–	–	–	–	–	> 10 µM	> 30 µM	> 30 µM
COc1ccc(C(=O)NCc2ccc(OCCN(C)C)cc2)cc1OC [ITOPRIDE]	> 30 µM	> 30 µM	> 30 µM	> 30 µM	> 30 µM	> 30 µM	> 30 µM	–	–	–	–
CN1CC[C@]23CCCC[C@H]2[C@H]1Cc1ccc(O)cc13 [LEVORPHANOL]	> 10 µM	> 10 µM	> 10 µM	> 30 µM	> 30 µM	> 10 µM	–	–	> 10 µM	> 10 µM	–
O=C(OCCN1CCOCC1)c1cccnc1Nc1cccc(C(F)(F)F)c1 [MORNIFLUMATE]	> 30 µM	> 30 µM	> 30 µM	> 30 µM	> 30 µM	> 30 µM	> 30 µM	–	–	–	–
CCCCCCCCOc1ccccc1C(=O)Nc1ccc(C(=O)OCC[N+](C)(CC)CC)cc1 [OTILONIUM BROMIDE]	13 µM	> 30 µM	16 µM	1.3 µM	1.7 µM	> 30 µM	–	–	–	–	–
Cc1nc2ccc(CN(C)c3ccc(C(=O)N[C@@H](CCC(=O)O)C(=O)O)s3)cc2c(=O)[nH]1 [RALTITREXED]	> 30 µM	> 30 µM	> 30 µM	> 30 µM	> 30 µM	> 30 µM	> 30 µM	–	> 30 µM	–	–
C1COC(NC(C2CC2)C2CC2)=N1 [RILMENIDINE]	> 30 µM	> 30 µM	> 10 µM	> 10 µM	> 30 µM	–	–	4.39 µM	–	> 30 µM	> 30 µM
O=C1NCCN1CCN1CCC(c2cn(-c3ccc(F)cc3)c3ccc(Cl)cc23)CC1 [SERTINDOLE]	> 30 µM	> 30 µM	> 30 µM	5 µM	22 µM	> 30 µM	0.64 µM	0.017 µM	–	–	–
Cc1c(C(=O)Nc2ccc(N3C[C@@H](C)O[C@@H](C)C3)nc2)cccc1-c1ccc(OC(F)(F)F)cc1 [SONIDEGIB]	> 10 µM	> 30 µM	> 10 µM	> 10 µM	–	–	–	–	> 10 µM	> 30 µM	> 10 µM
CC[C@]1(O)C[C@@H]2CN(CCc3c([nH]c4ccccc34)[C@@](C(=O)OC)(c3cc4c(cc3OC)N(C)[C@H]3[C@@](O)(C(N)=O)[C@H](O)[C@]5(CC)C=CCN6CC[C@]43[C@@H]65)C2)C1 [VINDESINE]	–	> 30 µM	> 30 µM	–	–	> 30 µM	> 30 µM	–	> 30 µM	–	–
CN1CCN(C(=O)OC2c3nccnc3C(=O)N2c2ccc(Cl)cn2)CC1 (configuration not stated) [ZOPICLONE]	> 30 µM	> 30 µM	> 10 µM	> 30 µM	> 30 µM	> 30 µM	> 30 µM	> 10 µM	–	> 30 µM	> 10 µM
TOCOFERSOLAN	> 30 µM	> 30 µM	> 30 µM	> 30 µM	> 30 µM	> 30 µM	> 30 µM	–	–	–	–
